Reference: patent publication US8592403B2, “Diazepine and diazocane compounds as MC4 agonists” (Pfizer Limited, priority 2008, dated 2013)

What was measured:
[1] = In vitro metabolism rate determination, human liver microsome (HLM) assay; type: in vitro ADME; conditions: human, liver microsomes, read-out: HLM: Clint, app
Source text: In Vitro Metabolism Rate Determination (Human Liver Microsome (HLM); Rat Liver Microsome (RLM) Assay)
Many drugs are metabolised by the cytochrome P450 mono-oxygenase system. This enzyme is found in high concentrations in the liver and is bound to the endoplasmic reticulum of the hepatocyte. The enzyme system can be obtained in semi-purified state by the preparation of the hepatic microsomal fractions. Determining a compound's in vitro half-life in such a system provides a useful indicator of metabolic stability.
Methodology for In Vitro Rate Determination Using Hepatic & Supermix Microsomes
The method outlined below is for a total incubation volume of 1.5 ml.
1. The following mixture is prepared in a test tube:
2. Defrost microsomes at room temperature and add sufficient microsomes to give a final concentration of 0.5 nmol cytochrome P450/ml of incubation e.g. for a 1.5 ml incubation, the volume of microsomes to be added is:
3. Add sufficient MilliQ water to give a total incubation volume of 1.425 ml.
6. Add substrate to the incubation. The substrate should be at an initial concentration of 1 μM. The volume of substrate required in the remaining 1.162.5 ml incubation is calculated as follows: […]
8. Pre-incubate the tube containing the incubation mix, also positive control and no cofactor tubes in the thermostatically controlled shaking water bath set at 37° C. for approx 5 min.
9. Add NADP to initiate reaction (75 μl to each 1.162.5 ml incubation mix, 12.5 μl to positive control tube and 5 μl to no substrate tube) and take first time point immediately. The PNA positive control, no cofactor control and no substrate tubes are incubated for the total incubation time.
10. Remove 100 μl aliquots up to 9 different sampling points from 0 to 60 min (usually 0, 3, 5, 10, 15, 20, 30, 45 & 60 min) and terminate reaction. Longer incubation times can be used, but, after 120 min the microsomes deteriorate. The reaction may be terminated by addition of organic solvent, acid or base. At the end of the incubation process the no cofactor and no substrate controls in a similar manner i.e. terminate with the same reagent.
11. Analyse samples (including no cofactor and no substrate control) by a specific assay for the substrate to determine the disappearance kinetics.
Data obtained using the procedure described above can be quantified in terms of the substrates in vitro intrinsic clearance (Clint). Providing that the substrate concentration is below Km, the metabolism should be 1st order giving a log-linear plot of substrate disappearance with time.
The gradient of this line is the first order rate constant (k) for the substrate disappearance and is determined by regression analysis. This rate constant can be converted to the half-life according to the following equation.
Alternatively the rate constant can be converted to an intrinsic clearance (Clint) according to the following equation:— Clint(μl/min/mg)=(k/protein concentration in incubation (mg/ml))*1000

MC4 receptor = MC4 receptor (Homo sapiens, UniProt P32245); assay: MC4 EC50 functional potency (protocol E of US2005/0176772 / WO 2005/077935); type: cell-based
Protocol: The compounds of formula (I) of the present invention have utility as MCR4 agonists in the treatment of various disease states.
MC5 and MC4 EC50 activity was determined as described by assay protocols D and E, respectively, in US2005/0176772 (pages 28-30).

MC3 receptor (MC3R) = molecular target: T1, MC3 receptor (MC3R) (Homo sapiens, UniProt P41968); assay: Nle4, D-Phe7-α-MSH inhibition at the MC3 receptor (competition binding, SPA, CHO-CRE MC3R membranes)
T1 construct: expressed in transfected cells; host or cells: CHO-CRE MC3R cells (membranes)
Source text: Nle4, D-Phe7-α-MSH Inhibition at the MC3 Receptor
Nle4, D-Phe7-α-MSH is a stable analogue of melanocyte-stimulating hormone (MSH), which is an agonist at the MC3 receptor (MC3R). Compounds can be evaluated for their ability to inhibit Nle4, D-Phe7-α-MSH binding to membranes from cells expressing the MC3R using a competition binding assay versus [^125I] Nle4, D-Phe7-α-MSH.
Cells expressing the MC3R were subject to homogenisation and the membrane fragment isolated by differential centrifugation. CHO-CRE MC3R cell membranes were coupled to PVT-PEI-WGA SPA Beads type A for 2 hours, spun at 1000 RPM for 5 mins and suspended to a final assay concentration of 800 ug bead/ml (1.2 ug membrane, 40 ug bead per well). Bead/membrane mix was incubated with 0.06 nM [^125I] Nle4, D-Phe7-α-MSH and 11 half-log concentrations of competitor ligand, in duplicate, in a total volume of 50 μl buffer per well (25 mM HEPES, 1 mM MgCl2, 2.5 mM CaCl2, 1% Pluronic F68, 1 complete EDTA protease inhibitor tablet/50 ml pH7). Non-specific binding was determined by the inclusion of 100 nM SHU9119. The reaction was initiated by the addition of bead/membranes and plates were incubated at room temperature for 12 hours (the first hour on a plate shaker), after which the amount of radioactivity present was determined using a Wallac plate counter. Ki values were determined by data analysis using appropriate software.

CYP3A4 = molecular target: T2, CYP3A4 (Homo sapiens, UniProt P08684); assay: High density DDI 3 μM cocktail screen in human liver microsomes, midazolam probe; type: in vitro ADME; conditions: human, liver microsomes, probe midazolam, read-out: % inhibition 3A4 @ 3 μM
T2 construct: utilizes human liver microsomes together with isoform-specific clinical drug probes; from tissue; host or cells: human liver microsomes
Protocol: High Density Drug-Drug Interactions (DDI) 3 μM Cocktail Screen
A drug interaction is a situation in which a substance affects the activity of another drug, i.e. the effects are increased or decreased, or together they produce a new effect that neither produces on its own. Drug interactions may be the result of various processes but a relatively common one is where one drug affects the pharmacokinetics of another by inhibiting the cytochrome P450 that metabolises it. Because of the importance of these phenomena, assessment of the DDI potential for new chemical entities (NCEs) is considered important early on in the drug discovery process.
The DDI cocktail screen in human liver microsomes (HLM) is run in a fully automated fashion and the aim of the screen is to provide a single-point assessment of the DDI potential of new chemical entity (NCE; tested at […]) against the 4 primary cytochrome P450 enzymes, 1A2, 2D6, 2C9 and 3A4.
The substrate cocktail approach for P450 DDI utilizes human liver microsomes together with isoform-specific clinical drug probes and permits the simultaneous measurement of the inhibition of P450 1A2, 2C9, 2D6 & 3A4 activities in a single incubation. This is run in high throughput with simultaneous detection of metabolites by LC-MS/MS. This method has been thoroughly tested and evaluated using standard compounds.
Appearance of the metabolite of each substrate is measured over time in the presence and absence of the NCE (test compound/inhibitor) at a concentration of 3 μM. The compounds are assessed for their inhibitory potential as a percentage value and interpreted using the following scheme.

Sequence of MC4 receptor (P32245 whole entry): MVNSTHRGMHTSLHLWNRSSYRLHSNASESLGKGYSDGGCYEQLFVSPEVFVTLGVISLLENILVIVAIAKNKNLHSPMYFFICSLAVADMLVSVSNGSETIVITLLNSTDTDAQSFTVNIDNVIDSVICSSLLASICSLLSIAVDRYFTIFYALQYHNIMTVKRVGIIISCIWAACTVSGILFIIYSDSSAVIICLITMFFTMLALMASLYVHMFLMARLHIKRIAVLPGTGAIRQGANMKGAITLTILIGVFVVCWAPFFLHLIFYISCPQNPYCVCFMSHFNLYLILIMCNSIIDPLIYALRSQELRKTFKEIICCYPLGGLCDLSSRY
T2 sequence (P08684 whole entry, canonical isoform): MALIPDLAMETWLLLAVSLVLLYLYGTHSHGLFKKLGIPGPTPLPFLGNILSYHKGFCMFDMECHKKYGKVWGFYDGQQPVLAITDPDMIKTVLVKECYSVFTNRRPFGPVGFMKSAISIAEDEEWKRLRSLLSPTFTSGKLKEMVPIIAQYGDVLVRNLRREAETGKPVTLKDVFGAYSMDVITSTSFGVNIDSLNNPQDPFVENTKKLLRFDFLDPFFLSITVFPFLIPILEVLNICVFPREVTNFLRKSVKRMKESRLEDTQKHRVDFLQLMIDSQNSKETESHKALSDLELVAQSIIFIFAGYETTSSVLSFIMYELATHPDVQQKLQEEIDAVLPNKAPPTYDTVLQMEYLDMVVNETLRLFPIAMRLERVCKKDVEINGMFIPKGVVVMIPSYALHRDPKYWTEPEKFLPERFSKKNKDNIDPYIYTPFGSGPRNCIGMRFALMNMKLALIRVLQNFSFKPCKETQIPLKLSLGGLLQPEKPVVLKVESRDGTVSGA
T1 sequence (P41968 whole entry): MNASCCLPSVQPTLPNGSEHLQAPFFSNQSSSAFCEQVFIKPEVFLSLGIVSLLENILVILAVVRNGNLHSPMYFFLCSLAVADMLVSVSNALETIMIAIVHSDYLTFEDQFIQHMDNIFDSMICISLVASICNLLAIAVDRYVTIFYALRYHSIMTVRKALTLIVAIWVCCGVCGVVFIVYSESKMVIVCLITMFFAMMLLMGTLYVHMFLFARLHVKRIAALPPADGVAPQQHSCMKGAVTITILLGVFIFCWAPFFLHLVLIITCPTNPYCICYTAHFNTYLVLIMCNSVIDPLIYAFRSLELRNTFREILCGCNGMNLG

Row | SMILES | microsomal CLint at 1 μM [1] [µL/min/mg] | EC50 (MC4 receptor) [nM] | Ki (MC3 receptor (MC3R)) [nM] | inhibition at 3 µM (CYP3A4) [%]
1 | COc1ccc([C@@H]2CN(c3cccnn3)C[C@H]2C(=O)N2CCC(c3ccc(Cl)cc3)N(C(C)=O)CC2)c(F)c1 (mixture of isomers) [Example 93] | 29.3 | 14.5 | 4900 | 18.9
2 | COc1ccc([C@@H]2CN(c3cccnn3)C[C@H]2C(=O)N2CCC(c3ccc(Cl)cc3)N(S(C)(=O)=O)CC2)c(F)c1 (mixture of isomers) [Example 94] | 78.1 | 25.6 | 6690 | 46.6
3 | COC(=O)N1CCN(C(=O)[C@@H]2CN(c3cccnn3)C[C@H]2c2ccc(OC)cc2F)CCC1c1ccc(Cl)cc1 (mixture of isomers) [Example 95] | 41.7 | 8.18 | 4040 | 41.9
4 | CC(C)(C)N1C[C@@H](C(=O)N2CCC[C@@H](c3ccc(Cl)cc3)N(C(=O)C3CC3)CC2)[C@H](c2ccc(F)cc2F)C1 [Example 7] | 26.2 | 11.9 | 10100 | –
5 | CC(C)C(=O)N1CCN(C(=O)[C@@H]2CN(c3ccc(=O)n(C)n3)C[C@H]2c2ccc(Cl)cn2)CCC[C@H]1c1ccc(Cl)cc1 [Example 37, 6-[(3S,4S)-3-{[5S-(4-chlorophenyl)-4-isobutyryl-1,4-diazocan-1-yl]carbonyl}-4-(5-chloropyridin-2-yl)pyrrolidin-1-yl]-2-methylpyridazin-3(2H)-one] | 13.9 | 2.11 | – | 42.3
6 | CCN(CC)C(=O)N1CCN(C(=O)[C@@H]2CN(C(C)(C)C)C[C@H]2c2ccc(F)cc2F)CCC[C@H]1c1ccc(Cl)cc1 [Example 44, 4-{[(3S,4R)-1-tert-butyl-4-(2,4-difluorophenyl)pyrrolidin-3-yl]carbonyl}-8S-(4-chlorophenyl)-N,N-diethyl-1,4-diazocane-1-carboxamide] | 173 | 5.58 | – | 54.5
7 | CC(C)(C)N1C[C@@H](C(=O)N2CCC[C@@H](c3ccc(Cl)cc3)N(C(=O)N3CCOCC3)CC2)[C@H](c2ccc(F)cc2F)C1 [Example 46] | 71.1 | 19.7 | – | 27.3
8 | COC(=O)N1CCN(C(=O)[C@@H]2CN(c3ccc(=O)n(C)n3)C[C@H]2c2ccc(Cl)cn2)CCC[C@H]1c1ccc(Cl)cc1 [Example 47, methyl 8S-(4-chlorophenyl)-4-{[(3S,4S)-4-(5-chloropyridin-2-yl)-1-(1-methyl-6-oxo-1,6-dihydropyridazin-3-yl)pyrrolidin-3-yl]carbonyl}-1,4-diazocane-1-carboxylate] | 20.6 | 5.11 | – | 54.2
9 | COC(=O)N1CCN(C(=O)[C@@H]2CN(c3ccc4nncn4n3)C[C@H]2c2ccc(Cl)cn2)CCC[C@@H]1c1ccc(Cl)cc1 [Example 51] | – | 3.29 | 212 | 75.2
10 | CC(C)OC(=O)N1CCN(C(=O)[C@@H]2CN(C(C)(C)C)C[C@H]2c2ccc(F)cc2F)CCC[C@H]1c1ccc(Cl)cc1 [Example 53] | 27.7 | 14.7 | – | 58.5
11 | COC(=O)N1CCN(C(=O)[C@@H]2CN(c3ccc(C#N)nn3)C[C@H]2c2ccc(F)cc2F)CCC[C@H]1c1ccc(Cl)cc1 [Example 55] | 9.75 | 5.16 | 154 | 70.6
12 | CC(C)(C)N1C[C@@H](C(=O)N2CCC[C@@H](c3ccc(Cl)cc3)N(C(=O)C3CCOCC3)CC2)[C@H](c2ccc(F)cc2F)C1 [Example 59, 1-{[(3S,4R)-1-tert-butyl-4-(2,4-difluorophenyl)pyrrolidin-3-yl]carbonyl}-5S-(4-chlorophenyl)-4-(tetrahydro-2H-pyran-4-ylcarbonyl)-1,4-diazocane] | 55.4 | 25.2 | – | 38.4
13 | CC(C)(C)N1C[C@@H](C(=O)N2CCC[C@@H](c3ccc(Cl)cc3)N(C(=O)C3CC(F)(F)C3)CC2)[C@H](c2ccc(F)cc2F)C1 [Example 61] | 13.9 | 25.3 | – | 40
14 | CC(C)(C)N1C[C@@H](C(=O)N2CCC[C@@H](c3ccc(Cl)cc3)N(C(=O)C3CC(F)(F)C3)CC2)[C@H](c2ccc(Cl)cn2)C1 [Example 63] | 9.43 | 85.3 | – | 55.6
15 | CC(C)(C)N1C[C@@H](C(=O)N2CCC[C@@H](c3ccc(Cl)cc3)N(C(=O)CC3CC3)CC2)[C@H](c2ccc(F)cc2F)C1 [Example 65] | 23.1 | 16.6 | 6860 | –
16 | COC(=O)N1CCN(C(=O)[C@@H]2CN(c3ccc4nncn4n3)C[C@H]2c2ccc(F)cc2F)CCC[C@H]1c1ccc(Cl)cc1 [Example 96] | 31.3 | 0.852 | – | 76.9
